Measured values as given in patent publication US20190315775A1, “MODIFIED […] AND PHARMACEUTICAL COMPOSITION HAVING SAME AS ACTIVE INGREDIENT” (KEIO UNIVERSITY, priority 2016, published 2019).

Assays:
[1] = Stability in mouse blood plasma; assay type: in vitro ADME
Excerpt: Subsequently, PEG11(E)-TC11 was examined for stability in mouse blood plasma (A) and in medium (B). […] Such degradation is considered to result from a small amount of esterase in FBS (fetal calf serum) contained in the medium.

[2] = test system: various high-risk MM cells (KMM1, KMS11, KMS21, KMS26, KMS27, KMS28, KMS34, MUM24); assay: MTT cell viability of various MM cells, PEG11(E)-TC11 vs lenalidomide (Example 9); assay type: cell-based, human; conditions: 48 hours, FIG. 5A
[3] = test system: KMM1 high-risk MM cell line; assay: WST-1 cell proliferation inhibition (Example 8), KMM1; assay type: cell-based; conditions: Homo sapiens, KMM-1, WST-1, 48 hours, read-out: IC50, cell proliferation inhibitory activity, KMM1
Procedure: (§1) Similar to Example 7, high-risk MM cell lines were treated with drugs, TC11 and PEG5(E)-TC11 at arbitrary concentrations. […] Specifically, each high-risk MM cell line was prepared at 5×10^5 cells/ml, and then seeded at 50 μl per well (2.5×10^4 cells). Drugs such as TC11, and PEG5(E)-TC11 were added to wells at arbitrary concentrations. WST-1 reagent was added at 48 hours after addition of drugs. After 1 hour of reaction at 37° C. in a CO2 incubator, absorbance was measured at a wavelength of 450 nm using a microplate reader. Cell viability was found from an absorbance ratio using absorbance at 0 μM designated as 100%. IC50 was calculated from a semi-logarithmic chart using Microsoft (registered trademark) Excel.

[4] = test system: KMS21 high-risk MM cell line; assay: WST-1 cell proliferation inhibition (Example 8), KMS21; assay type: cell-based; conditions: Homo sapiens, WST-1, 48 hours, read-out: IC50, cell proliferation inhibitory activity, KMS21
Procedure: as §1

[5] = test system: KMS34 high-risk MM cell line; assay: WST-1 cell proliferation inhibition (Example 8), KMS34; assay type: cell-based; conditions: Homo sapiens, KMS-34, WST-1, 48 hours, read-out: IC50, cell proliferation inhibitory activity, KMS34
Procedure: as §1

[6] = Mouse blood kinetics upon single intraperitoneal administration; assay type: in vivo; conditions: male, ICR, plasma, ip, mice, single intraperitoneal TC11 60 mg/kg BW
Procedure: First, PEG11(E)-TC11(A) and PEG11(O)-TC11(B) were examined for stability in mouse blood. To 5-week-old male ICR mice (CLEA Japan, Tokyo, Japan), PEG11(E)-TC11 and PEG11(O)-TC11 were administered intraperitoneally at 59.1 mg/kg BW and 54.6 mg/kg BW, respectively, in such a manner that each molar concentration was equivalent to that of 20 mg/kg BW of TC11. At 0, 0.5, 1, 1.5, 4, 8, 12, and 24 hours later, a tail vein was punctured with a 26G needle for bleeding, and then about 100 μL of blood was collected using a heparinized hematocrit capillary tube (Terumo, Tokyo, Japan). After blood collection, blood was transferred into a 0.5-mL tube, and then subjected to centrifugation at 4° C. and 3,400 G for 15 minutes. Subsequently, the supernatant was collected, and then cryopreserved at −80° C. A quality control serum, Consera (registered trademark) (Nissui pharmaceutical, Tokyo, Japan) was dissolved in 3 mL of distilled water (dH2O) per bottle. After left to stand for 30 minutes, bottles were turned upside-down (mixing by inversion) and then used. Consera (190 μL) was mixed with the collected blood plasma and 10 μL of urine, thereby preparing samples. Moreover, PEG11(E)-TC11 and HOEtO-TC11 were each diluted with dH2O in such a manner that the concentrations were 0, 2, 4, 6, 8, and 10 μM, and then 10 μL of the solution at each concentration and 190 μL of Consera were mixed, thereby preparing a calibration curve sample. […]
HPLC analysis was conducted using Inertsil (registered trademark) ODS-3 […]×Φ4.6 mm as a stationary phase, CH3CN:dH2O=50:50 as a mobile phase, a flow rate of 0.70 mL/min, a UV detection wavelength of 267 nm, and an excitation wavelength of 380 nm, a fluorescence wavelength of 530 nm, and an injection amount of 10 μL at a column temperature of 25° C.
PEG11(E)-TC11 was examined. […] Note that as described in Example 7, since PEG11(E)-TC11 is quickly hydrolyzed by esterase in blood and then converted to HOEtO-TC11, the blood HOEtO-TC11 level was measured.

[7] = test system: KMS11 xenograft; assay: Antitumor effect on KMS11 cancer-bearing mice (Example 17); assay type: in vivo, ICR/SCID mice; conditions: Day 9, i.p., equimolar to TC11 60 mg/kgBW
Procedure: KMS11 was administered to 5-week-old ICR/SCID mice at 2×10^7 cells/mouse via hypodermic injection. Tumor volumes were measured over time, and the day on which the tumor volume exceeded 50 mm^3 was designated as Day 1 and observation was performed for 9 days. […] On the day of administration, these solutions were diluted 10-fold with physiological saline while stirring with Vortex, and then intraperitoneally administered. Tumor volume was calculated by the following formula.
Tumor volume (mm^3)=major axis×minor axis×minor axis×π/6=major axis×minor axis×minor axis×0.5236

Cmax ([6]; read-out: Cmax, highest blood level)	half-life ([6]; read-out: t1/2, serum half-life (converted))	Tmax ([6]; read-out: tmax, time at which the blood level reached the highest level)	Compound	Stability in mouse blood plasma [1]	In vitro cell proliferation inhibitory activity against various high-risk MM cells [2]	IC50 [3]	IC50 [4]	IC50 [5]	KMS-11 tumor growth compared to control mice [7]
			COCCOCCOCCOCCOCCOCCOCCOCCOCCOCCOCCOCCC(=O)OCCOc1cc2c(cc1N)C(=O)N(c1c(C(C)C)cccc1C(C)C)C2=O [PEG11(E)-TC11]	very quickly hydrolyzed by esterase in mouse blood plasma	significant in vitro cell proliferation inhibitory activity				
2600 nM	1.4 h	1.5 h	CC(C)c1cccc(C(C)C)c1N1C(=O)c2ccc(N)cc2C1=O [TC11, 2-(2,6-di-isopropylphenyl)-5-amino-1H-isoindole-1,3-dione, reference compound]			5.7 µM	1.6 µM	6.5 µM	tumor growth was suppressed
